According to ChEMBL document CHEMBL3352798, “Cytotoxic vobasine, tacaman, and corynanthe-tryptamine bisindole alkaloids from Tabernaemontana and structure revision of tronoharine” (J Nat Prod, 2014):
≈ marks a conversion by molar mass, not a printed value.

Columns and labels:
Type in all cases: functional, cell-based
[1] = system: KB; assay: Cytotoxicity against vincristine-sensitive human KB cells
[2] = Cytotoxicity against vincristine-resistant human KB/VJ300 cells
[3] = Cytotoxicity against vincristine-resistant human KB/VJ300 cells in presence of vincristine

With `CC[C@@H]1CN(C)[C@H]2Cc3c([nH]c4ccccc34)C(=O)C[C@H]1[C@H]2C(=O)OC` the IC50 [1] was 5.5 µg/mL (≈ 15.5 µM), the IC50 [2] was > 25 µg/mL and the IC50 [3] was 9.4 µg/mL.

With `COC(=O)[C@@H]1[C@@H]2Cc3c([nH]c4ccccc34)C(=O)C[C@@H]1[C@@]1(CN2C)O[C@H]1C` the IC50 [1] was 5.7 µg/mL (≈ 15.5 µM), the IC50 [2] was > 25 µg/mL and the IC50 [3] was > 25 µg/mL.

In the case of `CCC1=CN(C)[C@H]2Cc3c([nH]c4ccccc34)C(=O)C[C@H]1[C@@H]2C(=O)OC`, the IC50 [1] was 18.9 µg/mL (≈ 53.6 µM), the IC50 [2] was > 25 µg/mL and the IC50 [3] was > 25 µg/mL.

In the case of `COC(=O)[C@H]1[C@@H]2CC(=O)c3[nH]c4ccccc4c3C[C@@H]1N(C)C=C2C(C)=O`, the IC50 [1] was > 25 µg/mL, the IC50 [2] was > 25 µg/mL and the IC50 [3] was > 25 µg/mL.

In the case of `C/C=C1\CN2CC[C@@]3(C(=O)Nc4ccccc43)[C@@H]2C[C@H]1C[C@@H]1NCCc2c1[nH]c1ccccc21`, the IC50 [1] was 20 µg/mL (≈ 44.2 µM), the IC50 [2] was > 25 µg/mL and the IC50 [3] was 8.4 µg/mL.

In the case of `CC[C@H]1CN(C)[C@H]2Cc3c([nH]c4ccccc34)C(=O)C[C@H]1[C@@H]2C(=O)OC`, the IC50 [1] was > 25 µg/mL, the IC50 [2] was > 25 µg/mL and the IC50 [3] was > 25 µg/mL.

Work on `C/C=C1/CN(C)[C@H]2Cc3c([nH]c4ccccc34)C(=O)C[C@H]1[C@H]2C(=O)OC` yielded an IC50 [1] of 5.6 µg/mL (≈ 15.9 µM), an IC50 [2] of 22 µg/mL (≈ 62.4 µM) and an IC50 [3] of 13.5 µg/mL.

With `COC(=O)[C@H]1[C@@H]2CC(=O)c3[nH]c4ccccc4c3C[C@@H]1N(C)C=C2C=O` the IC50 [1] was > 25 µg/mL, the IC50 [2] was > 25 µg/mL and the IC50 [3] was > 25 µg/mL.

In the case of `COC(=O)[C@@H]1[C@@H]2CC(=O)c3[nH]c4ccccc4c3C[C@@H]1N(C)C=C2C=O`, the IC50 [1] was 5.1 µg/mL (≈ 14.5 µM), the IC50 [2] was > 25 µg/mL and the IC50 [3] was > 25 µg/mL.

With `CC[C@@H]1CN(C)[C@H]2Cc3c([nH]c4ccccc34)C(=O)C[C@@H]1[C@H]2C(=O)OC` [TABERNAEMONTANINE] the IC50 [1] was > 25 µg/mL, the IC50 [2] was > 25 µg/mL and the IC50 [3] was > 25 µg/mL.

For `CC[C@]1(O)C[C@H]2CN(CCc3c([nH]c4ccccc34)[C@@](C(=O)OC)(c3cc4c(cc3OC)N(C=O)[C@H]3[C@@](O)(C(=O)OC)[C@H](OC(C)=O)[C@]5(CC)C=CCN6CC[C@]43[C@@H]65)C2)C1` [VINCRISTINE], the IC50 [1] was 0.007 µg/mL (≈ 0.00849 µM) and the IC50 [2] was 5.4 µg/mL (≈ 6.55 µM).

For `C/C=C1/CN(C)[C@H]2Cc3c([nH]c4ccccc34)C(=O)C[C@H]1[C@@H]2C(=O)OC` [VOBASINE], the IC50 [1] was > 25 µg/mL, the IC50 [2] was > 25 µg/mL and the IC50 [3] was > 25 µg/mL.
